In patent US9453051B2, “Cyclosporin derivatives” (priority 2011, dated 2016) one finds IC50 data, which are given here for 15 compounds.

A value given as a limit tells only on which side of the number the result lay.

One experiment concerns the target calcineurin (Homo sapiens, UniProt P62937+P63098+Q08209). The experiment can be described thus: Inhibition of the phosphatase activity of calcineurin (scintillation-proximity-assay, in presence of Cyp18).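 Further: calcineurin dephosphorylation of a ³³P-labelled RII phosphopeptide, captured on streptavidin-coated wells and read by scintillation counting, with uninhibited enzyme activity taken as 100%.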
The target in experiment [1] is recombinant human wild type Cyp18 (Cyp18 wt) (Homo sapiens, UniProt P62937). The experiment can be described thus: biochemical.
recombinant human wild type Cyp18 (Cyp18 wt), sequence (P62937 whole entry): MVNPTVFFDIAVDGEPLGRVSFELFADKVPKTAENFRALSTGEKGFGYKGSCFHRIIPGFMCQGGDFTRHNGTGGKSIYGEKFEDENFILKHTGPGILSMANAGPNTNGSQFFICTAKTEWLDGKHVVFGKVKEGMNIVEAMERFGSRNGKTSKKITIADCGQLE
Protocol: The determination was performed on a UV/Vis spectrometer at 10° C. cuvette temperature, whereby the device is operated at 390 nm in kinetic-mode (measurement buffer: 35 mM HEPES/NaOH pH 7.8 (AppliChem A1069)). 0.58 nM recombinant human wild type Cyp18 (Cyp18 wt), 2.33 nM bovine serum albumin (BSA) and 1 mg/ml chymotrypsin (Merck) solved in 35 mM HEPES/NaOH pH 7.8 as well as different concentration of each test substance, where appropriate, were in the cuvette. The reaction was started with a stock solution of Suc-Ala-Ala-Pro-Phe-4-nitroanilide (Bachem, 10 mg/ml DMSO) as substrate so that a final substrate concentration of 32 μM resulted. The extinction-time-curves were evaluated after expiry of the fast phase of the reaction i.e. after approximately 60 seconds according to a rate equation of a first-order reaction.

Protocol for calcineurin: The measurement was carried out by incubation of 10 μMol of the biotinylated phosphopeptide [sequence]pSer-Val-Ala-Ala-Glu (MW=2192.0) (RH-peptide) marked with ^33P in a sample buffer (40 mM Tris-HCl, pH 7.5, 100 mM NaCl, 6 mM MgCl2, 0.5 mM dithiothreitol, 1 mM. CaCl2, 0.1 mg/ml bovine serum albumin) in presence of 50 nM calmodulin and 1.32 nM calcineurin at 30° C. for 20 min in a 96 well micro titer plate (Costar, Bodenheim, Germany). The total volume of the assay/well was 100 μl. After this reaction time a 90 μl aliquot of the reaction mixture was transferred into a scintillation cavity coated with streptavidin and incubated for 20 min at 22° C. After a washing step the RII phosphopeptide-associated ^33P radioactivity was measured in a MicroBeta Top Counter (Wallac) and the enzyme activity was indicated as average value of three measurements±S.D. The uninhibited dephosphorylation activity has been set on 100%.

In general, IC50 refers to the point on the concentration scale where inhibition reaches its midpoint. Take `CC[C@@H]1NC(=O)[C@H]([C@H](O)[C@H](C)Cc2nc3cc(S(=O)(=O)O)cc(F)c3[nH]2)N(C)C(=O)[C@H](C(C)C)N(C)C(=O)[C@H](CC(C)C)N(C)C(=O)[C@H](CC(C)C)N(C)C(=O)[C@@H](C)NC(=O)[C@H](C)NC(=O)[C@H](CC(C)C)N(C)C(=O)[C@H](C(C)C)NC(=O)[C@H](CC(C)C)N(C)C(=O)CN(C)C1=O` [Compound 48]: the IC50 was above 10 µM at calcineurin and 0.0087 µM in experiment [1].

For the compound `CC[C@@H]1NC(=O)[C@H]([C@H](O)[C@H](C)Cc2nc3cc(C(=O)NCCN4CCN(C(=O)CCC(=O)O)CC4)ccc3[nH]2)N(C)C(=O)[C@H](C(C)C)N(C)C(=O)[C@H](CC(C)C)N(C)C(=O)[C@H](CC(C)C)N(C)C(=O)[C@@H](C)NC(=O)[C@H](C)NC(=O)[C@H](CC(C)C)N(C)C(=O)[C@H](C(C)C)NC(=O)[C@H](CC(C)C)N(C)C(=O)CN(C)C1=O` [Compound 54], the results for the IC50 (at calcineurin; in experiment [1]) were 7.2 µM and 0.0071 µM, respectively.

On to `CC[C@@H]1NC(=O)[C@H]([C@H](O)[C@H](C)Cc2nc3cc(C(=O)NCCOCCOCCNC(=O)CCC(=O)O)ccc3[nH]2)N(C)C(=O)[C@H](C(C)C)N(C)C(=O)[C@H](CC(C)C)N(C)C(=O)[C@H](CC(C)C)N(C)C(=O)[C@@H](C)NC(=O)[C@H](C)NC(=O)[C@H](CC(C)C)N(C)C(=O)[C@H](C(C)C)NC(=O)[C@H](CC(C)C)N(C)C(=O)CN(C)C1=O` [Compound 68], for which the IC50 at calcineurin is above 10 µM; in experiment [1], 0.0085 µM.

In the case of `CC[C@@H]1NC(=O)[C@H]([C@H](O)[C@H](C)Cc2nc3cc(C(=O)N[C@@H](CS)C(=O)N[C@@H](CS)C(N)=O)ccc3[nH]2)N(C)C(=O)[C@H](C(C)C)N(C)C(=O)[C@H](CC(C)C)N(C)C(=O)[C@H](CC(C)C)N(C)C(=O)[C@@H](C)NC(=O)[C@H](C)NC(=O)[C@H](CC(C)C)N(C)C(=O)[C@H](C(C)C)NC(=O)[C@H](CC(C)C)N(C)C(=O)CN(C)C1=O` [Compound 61], the IC50 in experiment [1] was around 0.01 µM.

Turning to `CC[C@@H]1NC(=O)[C@H]([C@H](O)[C@H](C)Cc2nc3cc(C(=O)N[C@@H](CCC(=O)O)C(=O)N[C@@H](CCC(=O)O)C(N)=O)ccc3[nH]2)N(C)C(=O)[C@H](C(C)C)N(C)C(=O)[C@H](CC(C)C)N(C)C(=O)[C@H](CC(C)C)N(C)C(=O)[C@@H](C)NC(=O)[C@H](C)NC(=O)[C@H](CC(C)C)N(C)C(=O)[C@H](C(C)C)NC(=O)[C@H](CC(C)C)N(C)C(=O)CN(C)C1=O` [Compound 63], the IC50 in experiment [1] amounted to 0.0051 µM.

For the compound `CC[C@@H]1NC(=O)[C@H]([C@H](O)[C@H](C)Cc2nc3c(C(=O)O)cccc3n2C)N(C)C(=O)[C@H](C(C)C)N(C)C(=O)[C@H](CC(C)C)N(C)C(=O)[C@H](CC(C)C)N(C)C(=O)[C@@H](C)NC(=O)[C@H](C)NC(=O)[C@H](CC(C)C)N(C)C(=O)[C@H](C(C)C)NC(=O)[C@H](CC(C)C)N(C)C(=O)CN(C)C1=O` [Compound 56], the IC50 at calcineurin is above 10 µM; in experiment [1], above 1 µM.

Take `CC[C@@H]1NC(=O)[C@H]([C@H](O)[C@H](C)Cc2nc3cc(C(=O)NCCN(C)C)ccc3[nH]2)N(C)C(=O)[C@H](C(C)C)N(C)C(=O)[C@H](CC(C)C)N(C)C(=O)[C@H](CC(C)C)N(C)C(=O)[C@@H](C)NC(=O)[C@H](C)NC(=O)[C@H](CC(C)C)N(C)C(=O)[C@H](C(C)C)NC(=O)[C@H](CC(C)C)N(C)C(=O)CN(C)C1=O` [Compound 52]: the IC50 at calcineurin is above 10 µM; in experiment [1], 0.008 µM.

`CC[C@@H]1NC(=O)[C@H]([C@H](O)[C@H](C)Cc2nc3cc(C(=O)N4CCCC4C(=O)N4CCC[C@H]4C(=O)N4CCCC4C(=O)N4CCC[C@H]4C(=O)N4CCCC4C(=O)N4CCC[C@H]4C(=O)O)ccc3[nH]2)N(C)C(=O)[C@H](C(C)C)N(C)C(=O)[C@H](CC(C)C)N(C)C(=O)[C@H](CC(C)C)N(C)C(=O)[C@@H](C)NC(=O)[C@H](C)NC(=O)[C@H](CC(C)C)N(C)C(=O)[C@H](C(C)C)NC(=O)[C@H](CC(C)C)N(C)C(=O)CN(C)C1=O` (some centres unmarked) [Compound 49]: the IC50 was above 10 µM at calcineurin and 0.0309 µM in experiment [1].

For `CC[C@@H]1NC(=O)[C@H]([C@H](O)[C@H](C)Cc2nc3cccc(C(=O)O)c3n2C)N(C)C(=O)[C@H](C(C)C)N(C)C(=O)[C@H](CC(C)C)N(C)C(=O)[C@H](CC(C)C)N(C)C(=O)[C@@H](C)NC(=O)[C@H](C)NC(=O)[C@H](CC(C)C)N(C)C(=O)[C@H](C(C)C)NC(=O)[C@H](CC(C)C)N(C)C(=O)CN(C)C1=O` [Compound 55], the IC50 is above 10 µM on calcineurin and 0.209 µM in experiment [1].

Turning to `CC[C@@H]1NC(=O)[C@H]([C@H](O)[C@H](C)Cc2nc3cc(C(=O)NCCOCCOCCNC(=O)[C@@H]4C[C@H](C(=O)O)C[C@H](C(=O)O)C4)ccc3[nH]2)N(C)C(=O)[C@H](C(C)C)N(C)C(=O)[C@H](CC(C)C)N(C)C(=O)[C@H](CC(C)C)N(C)C(=O)[C@@H](C)NC(=O)[C@H](C)NC(=O)[C@H](CC(C)C)N(C)C(=O)[C@H](C(C)C)NC(=O)[C@H](CC(C)C)N(C)C(=O)CN(C)C1=O` [Compound 67], the figures for the half-maximal inhibitory concentration (IC50) (on calcineurin; in experiment [1]) were above 10 µM and 0.0084 µM, respectively.

Consider `CC[C@@H]1NC(=O)[C@H]([C@H](O)[C@H](C)Cc2nc3cc(C(=O)N[C@@H](CS)C(=O)N[C@@H](C)C(N)=O)ccc3[nH]2)N(C)C(=O)[C@H](C(C)C)N(C)C(=O)[C@H](CC(C)C)N(C)C(=O)[C@H](CC(C)C)N(C)C(=O)[C@@H](C)NC(=O)[C@H](C)NC(=O)[C@H](CC(C)C)N(C)C(=O)[C@H](C(C)C)NC(=O)[C@H](CC(C)C)N(C)C(=O)CN(C)C1=O` [Compound 60], for which the IC50 in experiment [1] is around 0.01 µM.

For the compound `CC[C@@H]1NC(=O)[C@H]([C@H](O)[C@H](C)Cc2nc3cc(C(=O)NCCN4CCNCC4)ccc3[nH]2)N(C)C(=O)[C@H](C(C)C)N(C)C(=O)[C@H](CC(C)C)N(C)C(=O)[C@H](CC(C)C)N(C)C(=O)[C@@H](C)NC(=O)[C@H](C)NC(=O)[C@H](CC(C)C)N(C)C(=O)[C@H](C(C)C)NC(=O)[C@H](CC(C)C)N(C)C(=O)CN(C)C1=O` [Compound 64], the IC50 in experiment [1] worked out at 0.0172 µM.

On to `CC[C@@H]1NC(=O)[C@H]([C@H](O)[C@H](C)Cc2nc3cc(C(=O)O)ccc3o2)N(C)C(=O)[C@H](C(C)C)N(C)C(=O)[C@H](CC(C)C)N(C)C(=O)[C@H](CC(C)C)N(C)C(=O)[C@@H](C)NC(=O)[C@H](C)NC(=O)[C@H](CC(C)C)N(C)C(=O)[C@H](C(C)C)NC(=O)[C@H](CC(C)C)N(C)C(=O)CN(C)C1=O` [Compound 6], for which the IC50 in experiment [1] amounted to 0.7 µM.

On to `CC[C@@H]1NC(=O)[C@H]([C@H](O)[C@H](C)Cc2nc3cc(C(=O)N[C@@H](CO)C(=O)N[C@@H](CCC(=O)O)C(N)=O)ccc3[nH]2)N(C)C(=O)[C@H](C(C)C)N(C)C(=O)[C@H](CC(C)C)N(C)C(=O)[C@H](CC(C)C)N(C)C(=O)[C@@H](C)NC(=O)[C@H](C)NC(=O)[C@H](CC(C)C)N(C)C(=O)[C@H](C(C)C)NC(=O)[C@H](CC(C)C)N(C)C(=O)CN(C)C1=O` [Compound 62], for which, in experiment [1], the IC50 is 0.0044 µM.

Take `CC[C@@H]1NC(=O)[C@H]([C@H](O)[C@H](C)Cc2nc3cc(C(=O)N[C@@H](CCC(=O)OCc4ccccc4)C(=O)N[C@@H](CCC(=O)OCc4ccccc4)C(N)=O)ccc3[nH]2)N(C)C(=O)[C@H](C(C)C)N(C)C(=O)[C@H](CC(C)C)N(C)C(=O)[C@H](CC(C)C)N(C)C(=O)[C@@H](C)NC(=O)[C@H](C)NC(=O)[C@H](CC(C)C)N(C)C(=O)[C@H](C(C)C)NC(=O)[C@H](CC(C)C)N(C)C(=O)CN(C)C1=O` [Compound 57]: the IC50 in experiment [1] was found to be 0.0169 µM.
